{"source": "patent US20070167527A1", "about": "“MEMANTINE FOR THE NORMALIZATION OF VISUAL ACUITY DEFICITS” (priority 2006, published 2007)", "key": {"rabbits": {"test_system": "rabbits", "assay": "Visual acuity by sweep visual evoked potential (swVEP) in conscious rabbits after transient IOP elevation", "format": "in vivo, rabbit", "details": "4.5 months after transient IOP elevation; 2.5 kg rabbits pre-treated with oral dose of 50 mg memantine; compared with 50 mg sugar placebo (reduction in acuity)", "protocol": "This invention is especially useful in the use of memantine to normalize visual acuity deficits from outer retina (photoreceptor/RPE) injury.\n(§1) Rabbits were anesthetized with isofluorane, and prepared for unilateral acute retinal ischemia by raising IOP in the OD eye by 120 mm Hg for 45 minutes. To accomplish this, a reservoir with PBS was suspended 65 inches above the eye and connected to a 30 gauge needle inserted through the cornea into the anterior chamber. A drop of topical anesthetic (proparacaine) was placed upon the cornea prior to needle insertion.\nswVEP is an electrophysiological technique for assessing visual acuity in young children who can't read the Snellen eye charts. Pattern reversal images of increasing spatial frequency are projected onto the macula while simultaneously recording electrical activity (VEP) from the scalp. Images with lower spatial frequency generate large signals which get smaller as the spatial frequency increases, until signal=noise; this threshold is the visual acuity. […]\nVertical steady-state pattern-reversal sweep stimulus at spatial frequency range of 0.1 to 5 cycles per degree at a temporal frequency of 7.5 Hz were applied to the eye at mean luminance of 600 cd/m2 and contrast of 80%. […] Trials were averaged and the threshold (visual acuity) was determined by software or manual fitting at signal-to-noise ration no less than 2.5. […]"}, "retinal cells": {"test_system": "retinal cells", "assay": "Histology (H&E) examination of eyes after transient IOP elevation", "format": "in vivo, rabbit", "details": "compared with the placebo group (patchy loss of predominantly outer retina cells)", "protocol": "as §1, with “This invention is especially useful in the use of memantine to normalize visual acuity deficits from outer retina (photoreceptor/RPE) injury. […] Retinal cell degeneration was less in the memantine group compared with the placebo group. Rabbits” for “Rabbits”"}}}
{"smiles": "CC12CC3CC(C)(C1)CC(N)(C3)C2", "note": "[memantine]", "values": [{"measurement": "visual acuity", "setting": "rabbits", "result": "normal visual acuities"}, {"measurement": "retinal cell degeneration", "setting": "retinal cells", "result": "less"}]}
